Results as given in the supplement of paper PMC10307832.

Legend:
Assay in all cases: relative viability (nuclei count vs DMSO), 5 days (fraction); higher = more cells survive
NCI-H2347 = system: NCI-H2347
In short: (§1)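 Relative viability was taken as the ratio of nuclei in treated wells to nuclei in vehicle wells. Lung cancer cell lines in 1536-well plates received compounds by pin tool one day after seeding, either one drug alone or a fixed anchor-drug dose plus five library-drug doses (not always all listed) in √10 steps. Nuclei were counted on 4× images after 5 days of treatment, and values are medians of duplicate plates.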

NCI-H522 = system: NCI-H522
In short: as §1

EMC-BAC-2 = system: EMC-BAC-2
In short: as §1

NCI-H3122 = system: NCI-H3122
In short: as §1

HCC-44 = system: HCC-44
In short: as §1

NCI-H838 = system: NCI-H838
In short: as §1

NCI-H1395 = system: NCI-H1395
In short: as §1

NCI-H2023 = system: NCI-H2023
In short: as §1

NCI-H1993 = system: NCI-H1993
In short: as §1

201T = system: 201T
In short: as §1

NCI-H727 = system: NCI-H727
In short: as §1

NCI-H23 = system: NCI-H23
In short: as §1

BEN = system: BEN
In short: as §1

LCLC-103H = system: LCLC-103H
In short: as §1

NCI-H647 = system: NCI-H647
In short: as §1

NCI-H2126 = system: NCI-H2126
In short: as §1

NCI-H441 = system: NCI-H441
In short: as §1

NCI-H596 = system: NCI-H596
In short: as §1

NCI-H2087 = system: NCI-H2087
In short: as §1

NCI-H650 = system: NCI-H650
In short: as §1

HARA = system: HARA
In short: as §1

LOU-NH91 = system: LOU-NH91
In short: as §1

Compound: O=c1cc(N2CCOCC2)oc2c(-c3cccc4c3sc3ccccc34)cccc12 + COc1cccc2cc(-c3nc([C@H]4CC[C@H](C(=O)O)CC4)n4ncnc(N)c34)[nH]c12 [OSI-027] (partner 0.5 µM)
- relative viability (NCI-H2347; first compound 0.01 µM): 0.503
- relative viability (NCI-H2347; first compound 0.03162 µM): 0.392
- relative viability (NCI-H2347; first compound 0.1 µM): 0.522
- relative viability (NCI-H2347; first compound 0.3162 µM): 0.42
- relative viability (NCI-H2347; first compound 1 µM): 0.461
- relative viability (NCI-H522; first compound 0.01 µM): 0.83
- relative viability (NCI-H522; first compound 0.03162 µM): 0.708
- relative viability (NCI-H522; first compound 0.1 µM): 0.496
- relative viability (NCI-H522; first compound 0.3162 µM): 0.737
- relative viability (NCI-H522; first compound 1 µM): 0.737
- relative viability (EMC-BAC-2; first compound 0.01 µM): 0.409
- relative viability (EMC-BAC-2; first compound 0.03162 µM): 0.427
- relative viability (EMC-BAC-2; first compound 0.1 µM): 0.419
- relative viability (EMC-BAC-2; first compound 0.3162 µM): 0.423
- relative viability (EMC-BAC-2; first compound 1 µM): 0.385
- relative viability (NCI-H3122; first compound 0.01 µM): 1.02
- relative viability (NCI-H3122; first compound 0.03162 µM): 0.911
- relative viability (NCI-H3122; first compound 0.1 µM): 0.907
- relative viability (NCI-H3122; first compound 0.3162 µM): 0.987
- relative viability (NCI-H3122; first compound 1 µM): 0.934
- relative viability (HCC-44; first compound 0.01 µM): 0.524
- relative viability (HCC-44; first compound 0.03162 µM): 0.504
- relative viability (HCC-44; first compound 0.1 µM): 0.588
- relative viability (HCC-44; first compound 0.3162 µM): 0.694
- relative viability (HCC-44; first compound 1 µM): 0.463
- relative viability (NCI-H838; first compound 0.01 µM): 0.401
- relative viability (NCI-H838; first compound 0.03162 µM): 0.397
- relative viability (NCI-H838; first compound 0.1 µM): 0.389
- relative viability (NCI-H838; first compound 0.3162 µM): 0.42
- relative viability (NCI-H838; first compound 1 µM): 0.374
- relative viability (NCI-H1395; first compound 0.01 µM): 0.574
- relative viability (NCI-H1395; first compound 0.03162 µM): 0.695
- relative viability (NCI-H1395; first compound 0.1 µM): 0.488
- relative viability (NCI-H1395; first compound 0.3162 µM): 0.68
- relative viability (NCI-H1395; first compound 1 µM): 0.707
- relative viability (NCI-H2023; first compound 0.01 µM): 0.456
- relative viability (NCI-H2023; first compound 0.03162 µM): 0.536
- relative viability (NCI-H2023; first compound 0.1 µM): 0.424
- relative viability (NCI-H2023; first compound 0.3162 µM): 0.394
- relative viability (NCI-H2023; first compound 1 µM): 0.411
- relative viability (NCI-H1993; first compound 0.01 µM): 0.501
- relative viability (NCI-H1993; first compound 0.03162 µM): 0.521
- relative viability (NCI-H1993; first compound 0.1 µM): 0.566
- relative viability (NCI-H1993; first compound 0.3162 µM): 0.532
- relative viability (NCI-H1993; first compound 1 µM): 0.65
- relative viability (201T; first compound 0.01 µM): 0.811
- relative viability (201T; first compound 0.03162 µM): 0.832
- relative viability (201T; first compound 0.1 µM): 0.715
- relative viability (201T; first compound 0.3162 µM): 0.721
- relative viability (201T; first compound 1 µM): 0.645
- relative viability (NCI-H727; first compound 0.01 µM): 0.498
- relative viability (NCI-H727; first compound 0.03162 µM): 0.567
- relative viability (NCI-H727; first compound 0.1 µM): 0.473
- relative viability (NCI-H727; first compound 0.3162 µM): 0.592
- relative viability (NCI-H727; first compound 1 µM): 0.659
- relative viability (NCI-H23; first compound 0.01 µM): 0.641
- relative viability (NCI-H23; first compound 0.03162 µM): 0.633
- relative viability (NCI-H23; first compound 0.3162 µM): 0.757
- relative viability (NCI-H23; first compound 1 µM): 0.723
- relative viability (BEN; first compound 0.01 µM): 0.304
- relative viability (BEN; first compound 0.03162 µM): 0.309
- relative viability (BEN; first compound 0.1 µM): 0.302
- relative viability (BEN; first compound 0.3162 µM): 0.323
- relative viability (BEN; first compound 1 µM): 0.311
- relative viability (LCLC-103H; first compound 0.01 µM): 0.446
- relative viability (LCLC-103H; first compound 0.03162 µM): 0.462
- relative viability (LCLC-103H; first compound 0.1 µM): 0.513
- relative viability (LCLC-103H; first compound 0.3162 µM): 0.474
- relative viability (LCLC-103H; first compound 1 µM): 0.419
- relative viability (NCI-H647; first compound 0.01 µM): 0.689
- relative viability (NCI-H647; first compound 0.03162 µM): 0.739
- relative viability (NCI-H647; first compound 0.1 µM): 0.302
- relative viability (NCI-H647; first compound 0.3162 µM): 0.747
- relative viability (NCI-H647; first compound 1 µM): 0.745
- relative viability (NCI-H2126; first compound 0.01 µM): 0.709
- relative viability (NCI-H2126; first compound 0.03162 µM): 0.707
- relative viability (NCI-H2126; first compound 0.1 µM): 0.706
- relative viability (NCI-H2126; first compound 0.3162 µM): 0.772
- relative viability (NCI-H2126; first compound 1 µM): 0.702
- relative viability (NCI-H441; first compound 0.01 µM): 0.679
- relative viability (NCI-H441; first compound 0.03162 µM): 0.617
- relative viability (NCI-H441; first compound 0.1 µM): 0.537
- relative viability (NCI-H441; first compound 0.3162 µM): 0.614
- relative viability (NCI-H441; first compound 1 µM): 0.648
- relative viability (NCI-H596; first compound 0.01 µM): 0.738
- relative viability (NCI-H596; first compound 0.03162 µM): 0.747
- relative viability (NCI-H596; first compound 0.1 µM): 0.493
- relative viability (NCI-H596; first compound 0.3162 µM): 0.828
- relative viability (NCI-H596; first compound 1 µM): 0.722
- relative viability (NCI-H2087; first compound 0.01 µM): 0.569
- relative viability (NCI-H2087; first compound 0.03162 µM): 0.637
- relative viability (NCI-H2087; first compound 0.1 µM): 0.544
- relative viability (NCI-H2087; first compound 0.3162 µM): 0.416
- relative viability (NCI-H2087; first compound 1 µM): 0.599
- relative viability (NCI-H650; first compound 0.03162 µM): 0.591
- relative viability (NCI-H650; first compound 0.1 µM): 0.391
- relative viability (NCI-H650; first compound 0.3162 µM): 0.598
- relative viability (NCI-H650; first compound 1 µM): 0.493
- relative viability (HARA; first compound 0.01 µM): 0.549
- relative viability (HARA; first compound 0.03162 µM): 0.638
- relative viability (HARA; first compound 0.1 µM): 0.554
- relative viability (HARA; first compound 0.3162 µM): 0.585
- relative viability (HARA; first compound 1 µM): 0.564
- relative viability (LOU-NH91; first compound 0.01 µM): 0.68
- relative viability (LOU-NH91; first compound 0.03162 µM): 0.754
- relative viability (LOU-NH91; first compound 0.1 µM): 0.728
- relative viability (LOU-NH91; first compound 0.3162 µM): 0.779
- relative viability (LOU-NH91; first compound 1 µM): 0.702
